Data: patent publication US7227023B2, “Quinoline 3-amino chroman derivatives” (Wyeth, priority 2003, dated 2007)
Where a name gives a salt, the structure may show the parent alone.

What was measured:
[1] = target: T1, cloned human 5-HT1A receptors (Homo sapiens, UniProt P08908); test: 35S-GTPγS binding assay, agonist activity at 5-HT1A receptors; type: biochemical; conditions: membranes containing cloned human 5-HT1A receptors; for EC50: read-out: 5-HT1A Function EC50; for Emax / 5-HT1A Function Emax (maximum stimulatory effect): value in parentheses; for Emax: read-out: 5-HT1A Function Emax (maximum stimulatory effect); for 5-HT1A Function Emax (maximum stimulatory effect): in % (unit assumed)
T1 construct: expressed in transfected cells
T1 sequence (P08908 1-422): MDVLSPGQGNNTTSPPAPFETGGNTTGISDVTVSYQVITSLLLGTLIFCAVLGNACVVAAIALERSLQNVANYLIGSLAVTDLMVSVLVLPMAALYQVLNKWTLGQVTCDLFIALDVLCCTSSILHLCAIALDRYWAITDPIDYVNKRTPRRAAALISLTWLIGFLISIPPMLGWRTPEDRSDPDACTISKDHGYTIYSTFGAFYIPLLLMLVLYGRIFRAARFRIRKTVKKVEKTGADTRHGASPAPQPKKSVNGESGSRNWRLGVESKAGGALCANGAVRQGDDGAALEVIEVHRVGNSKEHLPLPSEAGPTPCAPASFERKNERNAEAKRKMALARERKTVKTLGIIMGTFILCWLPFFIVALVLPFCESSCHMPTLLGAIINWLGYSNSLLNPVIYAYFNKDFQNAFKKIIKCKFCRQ
Source text: The agonist activity at 5-HT1A receptors was established by using a ^35S-GTPγS binding assay similar to that used by Lazareno and Birdsall (Br. J. Pharmacol., 1993, 109:1120). The binding assay determines the test compound's ability to affect the binding of ^35S-GTPγS to membranes containing cloned human 5-HT1A receptors. Agonists produce an increase in binding whereas antagonists produce no increase but rather reverse the effects of the standard agonist 8-OH-DPAT. The test compound's maximum stimulatory effect is represented as the Emax, while its potency is defined by the EC50.

[2] = target: T2, human 5-HT1A receptors (Homo sapiens, UniProt P08908); test: [3H] 8-OH-DPAT displacement, affinity for the 5-HT1A receptor; type: binding; conditions: CHO cells stably transfected with human 5-HT1A receptors
T2 construct: expressed in transfected cells; host or cells: CHO cells, stably transfected
T2 sequence (P08908 1-422): T1 sequence (P08908 1-422)
Source text: High affinity for the serotonin 5-HT1A receptor was established by testing the claimed compound's ability to displace [^3H] 8-OH-DPAT (dipropylaminotetralin) from the 5-HT1A serotonin receptor following a modification of the procedure of Hall et al. (J. Neurochem., 1985, 44: 1685) which utilizes CHO cells stably transfected with human 5-HT1A receptors.

[3] = target: T3, 5-HT Transporter (Rattus norvegicus, UniProt P31652); test: 3H-paroxetine displacement, affinity for the serotonin transporter; type: binding; conditions: male rat cortical membranes
T3 construct: ability to displace ^3H-paroxetine from male rat cortical membranes; from tissue; host or cells: male rat cortex (membranes)
T3 sequence (P31652 whole entry): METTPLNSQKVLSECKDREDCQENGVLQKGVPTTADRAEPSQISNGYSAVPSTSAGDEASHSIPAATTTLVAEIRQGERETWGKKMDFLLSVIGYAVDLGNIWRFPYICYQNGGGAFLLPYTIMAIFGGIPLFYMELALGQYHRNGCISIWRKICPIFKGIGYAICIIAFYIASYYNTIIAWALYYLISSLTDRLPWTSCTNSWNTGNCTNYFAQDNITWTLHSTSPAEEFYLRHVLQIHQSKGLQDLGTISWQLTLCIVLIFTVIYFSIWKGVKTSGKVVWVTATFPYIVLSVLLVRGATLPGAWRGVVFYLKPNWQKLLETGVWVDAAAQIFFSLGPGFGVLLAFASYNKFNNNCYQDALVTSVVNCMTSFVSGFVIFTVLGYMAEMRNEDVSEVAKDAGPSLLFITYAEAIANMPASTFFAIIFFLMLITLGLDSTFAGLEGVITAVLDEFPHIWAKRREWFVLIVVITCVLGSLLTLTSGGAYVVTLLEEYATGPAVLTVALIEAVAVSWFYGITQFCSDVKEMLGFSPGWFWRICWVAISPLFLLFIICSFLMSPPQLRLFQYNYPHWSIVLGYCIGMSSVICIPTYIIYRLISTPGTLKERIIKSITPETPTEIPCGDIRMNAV

Fc1ccc2[nH]cc(CCCNC3COc4ccc5ncccc5c4C3)c2c1 (stereo not shown) (as salt: hydrochloride) [Compound 1, N-[3-(5-fluoro-1H-indol-3-yl)propyl]-2,3-dihydro-1H-pyrano[3,2-f]quinolin-2-amine]
melting point: > 180 °C

CCCN(CCCc1c[nH]c2ccc(F)cc12)C1COc2ccc3ncccc3c2C1 (stereo not shown) (as salt: hydrochloride) [Compound 2, N-[3-(5-fluoro-1H-indol-3-yl)propyl]-N-propyl-2,3-dihydro-1H-pyrano[3,2-f]quinolin-2-amine]
melting point: > 148 °C

Fc1ccc2[nH]cc(CCNC3COc4ccc5ncccc5c4C3)c2c1 (stereo not shown) (as salt: hydrochloride) [Compound 5]
melting point: 91 °C (dec.)

CCCN(CCc1c[nH]c2ccc(F)cc12)C1COc2ccc3ncccc3c2C1 (stereo not shown) (as salt: hydrochloride) [Compound 6, N-[2-(5-fluoro-1H-indol-3-yl)ethyl]-N-propyl-2,3-dihydro-1H-pyrano[3,2-f]quinolin-2-amine]
melting point: 67 °C

Fc1ccc2[nH]cc(CCCNC3COc4c(ccc5ncccc45)C3)c2c1 (stereo not shown) (as salt: hydrochloride) [Compound 7, N-[3-(5-fluoro-1H-indol-3-yl)propyl]-3,4-dihydro-2H-pyrano[2,3-f]quinolin-3-amine]
melting point: 300 °C (dec.)

CCCN(CCCc1c[nH]c2ccc(F)cc12)C1COc2c(ccc3ncccc23)C1 (stereo not shown) (as salt: hydrochloride) [Compound 8, N-[3-(5-fluoro-1H-indol-3-yl)propyl]-N-propyl-3,4-dihydro-2H-pyrano[2,3-f]quinolin-3-amine]
melting point: 134 °C (dec.)

Fc1ccc2[nH]cc(CCCCNC3COc4c(ccc5ncccc45)C3)c2c1 (stereo not shown) (as salt: hydrochloride) [Compound 9, N-[4-(5-fluoro-1H-indol-3-yl)butyl]-3,4-dihydro-2H-pyrano[2,3-f]quinolin-3-amine]
melting point: 173 °C (dec.)

CCCN(CCCCc1c[nH]c2ccc(F)cc12)C1COc2c(ccc3ncccc23)C1 (stereo not shown) (as salt: hydrochloride) [Compound 10, N-[4-(5-fluoro-1H-indol-3-yl)butyl]-N-propyl-3,4-dihydro-2H-pyrano[2,3-f]quinolin-3-amine]
melting point: 164 °C (dec.)

Fc1ccc2[nH]cc(CCCNC3COc4ccc5ncccc5c4C3)c2c1 (single isomer, unassigned; (+)) (as salt: hydrochloride) [Compound 1a, (+)-N-[3-(5-fluoro-1H-indol-3-yl)propyl]-2,3-dihydro-1H-pyrano[3,2-f]quinolin-2-amine]
melting point: 330 °C (dec.)

CCCN(CCCc1c[nH]c2ccc(F)cc12)C1COc2ccc3ncccc3c2C1 (single isomer, unassigned; (+)) (as salt: hydrochloride) [Compound 4, (+)-N-[3-(5-fluoro-1H-indol-3-yl)propyl]-N-propyl-2,3-dihydro-1H-pyrano[3,2-f]quinolin-2-amine]
melting point: 106 °C (dec.)

Fc1ccc2[nH]cc(CCCNC3COc4ccc5ncccc5c4C3)c2c1 (single isomer, unassigned; (+)) [Compound 1a, (+)-N-[3-(5-fluoro-1H-indol-3-yl)propyl]-2,3-dihydro-1H-pyrano[3,2-f]quinolin-2-amine]
EC50 [1]: 730 nM
Emax [1]: 100%
Ki [2]: 23.9 nM

CCCN(CCCc1c[nH]c2ccc(F)cc12)C1COc2ccc3ncccc3c2C1 (single isomer, unassigned; (+)) [Compound 4, (+)-N-[3-(5-fluoro-1H-indol-3-yl)propyl]-N-propyl-2,3-dihydro-1H-pyrano[3,2-f]quinolin-2-amine]
Ki [3]: 19 nM
EC50 [1]: 300 nM
5-HT1A Function Emax (maximum stimulatory effect) [1]: 99.92
Ki [2]: 239 nM

Fc1ccc2[nH]cc(CCCNC3COc4c(ccc5ncccc45)C3)c2c1 (single isomer, unassigned; (+)) [Compound 7a, (+)-N-[3-(5-fluoro-1H-indol-3-yl)propyl]-3,4,-dihydro-2H-pyrano[2,3-f]quinolin-3-amine]
Ki [3]: 2.83 nM
EC50 [1]: 320 nM
5-HT1A Function Emax (maximum stimulatory effect) [1]: 74.80

CCCN(CCCc1c[nH]c2ccc(F)cc12)C1COc2ccc3ncccc3c2C1 (single isomer, unassigned; (-)) (as salt: hydrochloride) [Compound 3, (−)-N-[3-(5-fluoro-1H-indol-3-yl)propyl]-N-propyl-2,3-dihydro-1H-pyran[3,2-f]quinolin-2-amine]
melting point: 83.5 °C (dec.)

Fc1ccc2[nH]cc(CCCNC3COc4c(ccc5ncccc45)C3)c2c1 (single isomer, unassigned; (-)) (as salt: hydrochloride) [Compound 7b, (−)-N-[3-(5-fluoro-1H-indol-3-yl)propyl]-3,4-dihydro-2H-pyrano[2,3-f]quinolin-3-amine]
melting point: 250 °C (dec.)

Fc1ccc2[nH]cc(CCCNC3COc4ccc5ncccc5c4C3)c2c1 (single isomer, unassigned; (-)) [Compound 1b, (−)-N-[3-(5-fluoro-1H-indol-3-yl)propyl]-2,3-dihydro-1H-pyrano[3,2-f]quinolin-2-amine]
EC50 [1]: 120 nM
5-HT1A Function Emax (maximum stimulatory effect) [1]: 85.87
Ki [2]: 314 nM

CCCN(CCCc1c[nH]c2ccc(F)cc12)C1COc2ccc3ncccc3c2C1 (single isomer, unassigned; (-)) [Compound 3, (−)-N-[3-(5-fluoro-1H-indol-3-yl)propyl]-N-propyl-2,3-dihydro-1H-pyran[3,2-f]quinolin-2-amine]
Ki [3]: 8 nM
EC50 [1]: 630 nM
5-HT1A Function Emax (maximum stimulatory effect) [1]: 54.72
Ki [2]: 210 nM

Fc1ccc2[nH]cc(CCCNC3COc4c(ccc5ncccc45)C3)c2c1 (single isomer, unassigned; (-)) [Compound 7b, (−)-N-[3-(5-fluoro-1H-indol-3-yl)propyl]-3,4-dihydro-2H-pyrano[2,3-f]quinolin-3-amine]
Ki [3]: 4.2 nM
EC50 [1]: 170 nM
5-HT1A Function Emax (maximum stimulatory effect) [1]: 100
Ki [2]: 16.2 nM

Fc1ccc2[nH]cc(CCCNC3COc4ccc5ncccc5c4C3)c2c1 (stereo not shown) [Compound 1, N-[3-(5-fluoro-1H-indol-3-yl)propyl]-2,3-dihydro-1H-pyrano[3,2-f]quinolin-2-amine]
EC50 [1]: 180 nM
Emax [1]: 75.8%
Ki [2]: 62.6 nM

CCCN(CCCc1c[nH]c2ccc(F)cc12)C1COc2ccc3ncccc3c2C1 (stereo not shown) [Compound 2, N-[3-(5-fluoro-1H-indol-3-yl)propyl]-N-propyl-2,3-dihydro-1H-pyrano[3,2-f]quinolin-2-amine]
Ki [3]: 6.5 nM
EC50 [1]: 2220 nM
Emax [1]: 100%
Ki [2]: 91 nM

Fc1ccc2[nH]cc(CCNC3COc4ccc5ncccc5c4C3)c2c1 (stereo not shown) [Compound 5]
Ki [3]: 24 nM
EC50 [1]: 5000 nM
Emax [1]: 30%

CCCN(CCc1c[nH]c2ccc(F)cc12)C1COc2ccc3ncccc3c2C1 (stereo not shown) [Compound 6, N-[2-(5-fluoro-1H-indol-3-yl)ethyl]-N-propyl-2,3-dihydro-1H-pyrano[3,2-f]quinolin-2-amine]
Ki [3]: 40 nM
EC50 [1]: 190 nM
Emax [1]: 41.3%
Ki [2]: 478 nM

Fc1ccc2[nH]cc(CCCNC3COc4c(ccc5ncccc45)C3)c2c1 (stereo not shown) [Compound 7, N-[3-(5-fluoro-1H-indol-3-yl)propyl]-3,4-dihydro-2H-pyrano[2,3-f]quinolin-3-amine]
Ki [3]: 2.83 nM
EC50 [1]: 1200 nM
Emax [1]: 100%
Ki [2]: 13.6 nM

CCCN(CCCc1c[nH]c2ccc(F)cc12)C1COc2c(ccc3ncccc23)C1 (stereo not shown) [Compound 8, N-[3-(5-fluoro-1H-indol-3-yl)propyl]-N-propyl-3,4-dihydro-2H-pyrano[2,3-f]quinolin-3-amine]
Ki [3]: 15 nM
EC50 [1]: 1710 nM
Emax [1]: 68.3%

Fc1ccc2[nH]cc(CCCCNC3COc4c(ccc5ncccc45)C3)c2c1 (stereo not shown) [Compound 9, N-[4-(5-fluoro-1H-indol-3-yl)butyl]-3,4-dihydro-2H-pyrano[2,3-f]quinolin-3-amine]
Ki [3]: 1.18 nM
EC50 [1]: 5940 nM
Emax [1]: 100%

CCCN(CCCCc1c[nH]c2ccc(F)cc12)C1COc2c(ccc3ncccc23)C1 (stereo not shown) [Compound 10, N-[4-(5-fluoro-1H-indol-3-yl)butyl]-N-propyl-3,4-dihydro-2H-pyrano[2,3-f]quinolin-3-amine]
Ki [3]: 12 nM
